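Compound exposure: 48 hours, 5 concentrations, 96-well plates. The concentration for 50% growth inhibition is given as GI50.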 Calls of active or inactive are those of the source. Cut-off read from the data, not from the text of the source: active = GI50 up to about 1.1 µM and inactive = higher. Bounds are passed on as bounds.

Some test systems named below: SF-268; A549; COLO 205; BT-549; NCI-H226; UACC-257; DU-145; SW-620; SNB-19; SK-MEL-28; LOX IMVI; SF-295; UACC-62; HOP-62; SK-MEL-2; K562; SR; IGROV-1; ACHN; EKVX.
Common to all, as to test: NCI tumour cell line growth inhibition, 48 h

For `Nc1ncnc2c1ccn2C1OC2COP(=O)(O)OC2C1O` (stereo not given), the GI50 in the test on SF-268 was 0.46 µM (active); in the test with A549, 0.365 µM (active); in the test with COLO 205, 0.181 µM (active); with BT-549, 0.482 µM (active); in the test on NCI-H226 it was 2.9 µM (inactive); in the test with UACC-257, 1.26 µM (inactive). Further, the GI50 in the test on DU-145 is 0.723 µM (active); in the test on SW-620, 0.261 µM (active); in the test on SNB-19, 1.61 µM (inactive); in the test on SK-MEL-28, 0.515 µM (active); in the test on LOX IMVI it was 0.0735 µM (active); in the test on SF-295 it was 0.641 µM (active). Also, the GI50 with UACC-62 is 0.0914 µM (active); with HOP-62 it was 0.501 µM (active); with SK-MEL-2 it was 0.458 µM (active); in the test on K562, 0.261 µM (active); with SR, 0.173 µM (active); in the test with IGROV-1 it was 0.488 µM (active). Further, the values for the GI50 with ACHN and with EKVX were 0.0412 µM (active) and 2.64 µM (inactive), respectively.
In the case of `CC(=O)OC1[C@@H](OC(C)=O)CN(OCc2ccccc2)C[C@H]1OC(C)=O` (stereo not given in full), the GI50 in the test with SF-268, with A549, in the test on COLO 205, in the test with BT-549, with NCI-H226 and in the test on UACC-257 was > 100 µM (inactive) in each case. The GI50 with DU-145, in the test on SW-620, in the test with SNB-19, in the test on SK-MEL-28, in the test on LOX IMVI and in the test with SF-295 was > 100 µM (inactive) each time. Also, the GI50 in the test with UACC-62, with HOP-62, with SK-MEL-2, in the test on K562, in the test with SR and in the test with IGROV-1 was > 100 µM (inactive) each time. Also, the GI50 in the test on ACHN and in the test with EKVX was > 100 µM (inactive) each time.
Turning to `COc1cc2c(cc1OC)C1C=NC(C2)c2cc(OC)c(OC)cc21` (stereo not given), the GI50 is > 100 µM (inactive) with SF-268; 78.7 µM (inactive) in the test on A549; 89.7 µM (inactive) in the test with COLO 205; 81.8 µM (inactive) in the test with BT-549; 6.97 µM (inactive) in the test on NCI-H226; > 100 µM (inactive) in the test with UACC-257. Moreover, the GI50 in the test on DU-145, in the test with SW-620, in the test with SNB-19, in the test with SK-MEL-28, in the test with LOX IMVI and in the test on SF-295 was > 100 µM (inactive) each time. Moreover, the GI50 was > 100 µM (inactive) in the test on UACC-62; > 100 µM (inactive) in the test with HOP-62; > 100 µM (inactive) with SK-MEL-2; 54.2 µM (inactive) with K562; 69.3 µM (inactive) with SR; 96.4 µM (inactive) in the test on IGROV-1. The GI50 with ACHN is > 100 µM (inactive); in the test on EKVX, 85.9 µM (inactive).
`O=c1c2ncn(C3CC(O)C(CO)O3)c2nnn1Cc1ccccc1[N+](=O)[O-]` (stereo not given): the GI50 with SF-268 is > 100 µM (inactive); in the test with A549, > 100 µM (inactive); in the test with COLO 205, > 100 µM (inactive); in the test with BT-549 it was > 100 µM (inactive); in the test with NCI-H226, 43.6 µM (inactive); with UACC-257, > 100 µM (inactive). Further, the GI50 in the test on DU-145, in the test on SW-620, with SNB-19, in the test on SK-MEL-28, in the test on LOX IMVI and in the test with SF-295 was > 100 µM (inactive) each time. In addition, the GI50 in the test on UACC-62 is > 100 µM (inactive); in the test on HOP-62 it was > 100 µM (inactive); in the test on SK-MEL-2, 4.78 µM (inactive); with K562, > 100 µM (inactive); in the test with SR, 3.13 µM (inactive); in the test with IGROV-1, > 100 µM (inactive). Further, the GI50 in the test with ACHN and in the test with EKVX was > 100 µM (inactive) each time.
`C=C(CN(C)C)C(=O)c1ccc(C)cc1C`: the GI50 in the test on SF-268 is 15.3 µM (inactive); in the test on A549, 32.2 µM (inactive); in the test with COLO 205, 3.38 µM (inactive); in the test on BT-549, 3.59 µM (inactive); in the test with NCI-H226, 15.5 µM (inactive); in the test on UACC-257 it was 9.51 µM (inactive). Also, the GI50 in the test with DU-145 was 17.6 µM (inactive); with SW-620 it was 2.74 µM (inactive); in the test on SNB-19, 32.7 µM (inactive); in the test with SK-MEL-28, 6.1 µM (inactive); in the test on LOX IMVI it was 5.12 µM (inactive); in the test with SF-295, 16.3 µM (inactive). The GI50 in the test with UACC-62 is 10.5 µM (inactive); with HOP-62, 32.2 µM (inactive); in the test with SK-MEL-2 it was 18 µM (inactive); in the test on K562, 1.15 µM (inactive); with SR, 1.25 µM (inactive); with IGROV-1, 7.23 µM (inactive). Besides, the GI50 was 7.73 µM (inactive) in the test on ACHN and 12.9 µM (inactive) with EKVX.
With `CCOC(=O)Cn1nc2ccc(Nc3nc4ccccc4nc3C(=O)OCC)cc2n1`, the GI50 with SF-268 is 47.4 µM (inactive); in the test on A549, > 100 µM (inactive); in the test on COLO 205, > 100 µM (inactive); with BT-549, > 100 µM (inactive); in the test on NCI-H226 it was 59.8 µM (inactive); in the test with UACC-257, > 100 µM (inactive). Further, the GI50 was > 100 µM (inactive) with DU-145; > 100 µM (inactive) in the test with SW-620; 34 µM (inactive) in the test with SNB-19; > 100 µM (inactive) in the test with SK-MEL-28; > 100 µM (inactive) in the test with LOX IMVI; 45.1 µM (inactive) with SF-295. The GI50 with UACC-62 was 66.8 µM (inactive); in the test on HOP-62, 68.7 µM (inactive); with SK-MEL-2, 54.6 µM (inactive); in the test with K562, > 100 µM (inactive); in the test with SR, > 100 µM (inactive); in the test on IGROV-1, 69.7 µM (inactive). For the same molecule, the GI50 is > 100 µM (inactive) with ACHN and 52 µM (inactive) with EKVX.
As to `O=C1C2C(c3ccccc3)NC(c3ccccc3)C1C(c1ccccc1)NC2c1ccccc1` (stereo not given), the GI50 in the test on SF-268, in the test with A549, in the test with COLO 205, in the test with BT-549, with NCI-H226 and in the test with UACC-257 was > 100 µM (inactive) in each case. Further, the GI50 in the test with DU-145, in the test with SW-620, in the test with SNB-19, in the test on SK-MEL-28, in the test on LOX IMVI and in the test with SF-295 was > 100 µM (inactive) in each case. Also, the GI50 in the test on UACC-62, in the test with HOP-62, in the test with SK-MEL-2, with K562, in the test with SR and with IGROV-1 was > 100 µM (inactive) throughout. Moreover, the GI50 in the test on ACHN and in the test on EKVX was > 100 µM (inactive) each time.
With `CCOC(=O)C(Cl)(Cl)/S(=N\S(=O)(=O)c1ccccc1)NC(=O)c1ccccc1` (stereo not given), the GI50 with SF-268, in the test with A549, in the test with COLO 205, in the test with BT-549, in the test with NCI-H226 and in the test with UACC-257 was > 100 µM (inactive) each time. For the same molecule, the GI50 in the test with DU-145, with SW-620, in the test on SNB-19, in the test on SK-MEL-28, in the test with LOX IMVI and in the test on SF-295 was > 100 µM (inactive) throughout. The GI50 in the test with UACC-62, in the test on HOP-62, with SK-MEL-2, in the test on K562, in the test with SR and in the test with IGROV-1 was > 100 µM (inactive) each time. Besides, the GI50 in the test with ACHN and in the test on EKVX was > 100 µM (inactive) each time.
Regarding `O=C(CCCN1CCC(Nc2ccccc2)(c2nnnn2C2CCCCC2)CC1)c1ccc(F)cc1`, the GI50 in the test with SF-268 was 2.4 µM (inactive); in the test with A549, 3.49 µM (inactive); in the test with COLO 205 it was 2.24 µM (inactive); in the test with BT-549, 7.96 µM (inactive); with NCI-H226 it was 17.9 µM (inactive); in the test with UACC-257, 2.52 µM (inactive). Also, the GI50 in the test with DU-145 is 3.81 µM (inactive); in the test with SW-620, 6.76 µM (inactive); in the test on SNB-19, 9.64 µM (inactive); with SK-MEL-28 it was 3.79 µM (inactive); in the test with LOX IMVI, 3.81 µM (inactive); with SF-295 it was 14.5 µM (inactive). The GI50 with UACC-62 is 11.7 µM (inactive); in the test on HOP-62 it was 6.17 µM (inactive); with SK-MEL-2 it was 4.21 µM (inactive); in the test with K562, 13 µM (inactive); in the test with SR, 6.67 µM (inactive); in the test with IGROV-1, 11.1 µM (inactive). Besides, the GI50 in the test with ACHN was 4.58 µM (inactive); in the test with EKVX, 3.3 µM (inactive).
As for `C/C(=N\NC(=S)N1CCCCCC1)c1ccccn1`, the GI50 was 0.405 µM (active) with SF-268; 0.0271 µM (active) in the test with A549; 0.00244 µM (active) with COLO 205; 0.17 µM (active) with BT-549; 0.565 µM (active) in the test with NCI-H226; 0.0128 µM (active) in the test on UACC-257. The GI50 with DU-145 was 0.986 µM (active); in the test with SW-620, 0.0148 µM (active); in the test with SNB-19 it was 0.0521 µM (active); in the test with SK-MEL-28, 1.18 µM (inactive); in the test with LOX IMVI it was 0.0656 µM (active); in the test with SF-295, < 0.0187 µM (active). The GI50 with UACC-62 is 0.00881 µM (active); with HOP-62, 0.075 µM (active); with SK-MEL-2 it was 0.132 µM (active); in the test with K562, 0.00288 µM (active); with SR, 0.00392 µM (active); in the test on IGROV-1, 0.00162 µM (active). The GI50 with ACHN was 0.00405 µM (active); in the test on EKVX, 0.0641 µM (active).

For the origin of these results see ChEMBL document CHEMBL1201862, “PubChem BioAssay data set” (2004).
